These results are taken from paper doi:10.1101/2020.05.25.114512v1 (bioRxiv, 2020).

The test system of series [1] is neurotensin. The conditions noted are these: ref [25]; cited from earlier work.
Series [2] in a line: Cytotoxic activity. The format is cell-based. The conditions noted are these: human, HCT-116 cells (colon carcinoma).
Series [3] in a line: Cytotoxic activity. Format: cell-based. The conditions noted are these: human, KB-3-1 cells (cervix carcinoma).
Series [4] deals with pyocyanin produced by Pseudomonas aeruginosa strain PA14. The series can be described thus: Pyocyanin assay. The conditions noted are these: administered to Pseudomonas aeruginosa. Format: cell-based.
Series [5] has as its system E. coli TolC mutants. As to the kind of experiment: Bacterial cell entry test, LC-MS analysis. The format is cell-based, Escherichia coli. The conditions noted are these: concluded from fluorescence microscopy and LC-MS analysis.
Series [6] has as its system pancreatic elastase. The note with it: previously listed in the literature; cited from earlier work.

Values after ≈ are worked out from the molar mass of the structure shown.

As for YIYY (bicyclic or more) [cittilin B], in series [1], the “IC50, neurotensin inhibitor” value is 30 µg/mL.
For `CC[C@H](C)[C@@H]1NC(=O)[C@@H](N)Cc2ccc(OC)c(c2)-c2cc3cc(c2O)Oc2ccc(cc2)C[C@@H](C(=O)O)NC(=O)[C@H](C3)NC1=O` [cittilin A], the half-inhibitory concentration (IC50) at 5 days in series [2] stood at 110 µg/mL (≈ 175 µM); in series [3], 74.8 µg/mL (≈ 119 µM). Further, the “inhibition of pyocyanin production (in words)” value in series [4] is “no inhibition of pyocyanin production”. Also, the “cell entry capabilities for E. coli (authors' conclusion, in words)” value in series [5] is on record as “poor cell entry capabilities”. The “inhibition of pancreatic elastase (in words)” value in series [6] is reported as “moderate inhibitor”.
